# Source: US20250129104A1, “7H-PYRROLO[2,3-D]PYRIMIDINES AND PREPARATION AND USES THEREOF” (BioSplice Therapeutics, Inc., priority 2021, published 2025)
# Target: recombinant DYRK1A kinase (Homo sapiens (Human), UniProt Q13627)
# Assay: DYRK1A kinase assay (Ser/Thr 18 peptide Z-lyte FRET assay)
# Format: biochemical
# Conditions: DYRK1A kinase activity; 15 μM ATP, 1 h room temperature; method text calls the value IC50
# In short: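 FRET Z-lyte read-out (coumarin/fluorescein ratio, % phosphorylation) after 1 h development; IC50 from non-linear curve fit. Reaction: 0.25 μg/mL recombinant human DYRK1A, Ser/Thr 18 peptide 4 μM, ATP 15 μM, compound in 11-point 1:3 series from 10 μM, 1 h, room temperature, duplicate wells.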
row,Structure (SMILES),EC50 [nM]
1,"COc1nc(NC2CCC3(CC2)OCCO3)nc2[nH]cc(-c3ccn4nccc4c3)c12 [Compound 2215, 4-Methoxy-5-(pyrazolo[1,5-a]pyridin-5-yl)-N-(1,4-dioxaspiro[4.5]decan-8-yl)-7H-pyrrolo[2,3-d]pyrimidin-2-amine]",1.6
2,"COc1nc(NC2CCN(C)CC2)nc2[nH]cc(-c3ccn4nccc4c3)c12 [Compound 2216, 4-Methoxy-N-(1-methylpiperidin-4-yl)-5-(pyrazolo[1,5-a]pyridin-5-yl)-7H-pyrrolo[2,3-d]pyrimidin-2-amine]",7.4
3,"CCOc1nc(N[C@H](C)C(F)(F)F)nc2[nH]cc(-c3ccn4nccc4c3)c12 [Compound 2218, (R)-4-Ethoxy-5-(pyrazolo[1,5-a]pyridin-5-yl)-N-(1,1,1-trifluoropropan-2-yl)-7H-pyrrolo[2,3-d]pyrimidin-2-amine]",12.9
4,"CC(C)Oc1nc(N[C@H]2CC[C@@](C)(O)CC2)nc2[nH]cc(-c3ccn4nccc4c3)c12 [Compound 2220, cis-4-((4-Isopropoxy-5-(pyrazolo[1,5-a]pyridin-5-yl)-7H-pyrrolo[2,3-d]pyrimidin-2-yl)amino)-1-methylcyclohexan-1-ol]",66.1
5,"FC(F)CO[C@H]1CC[C@@H](Nc2ncc3c(-c4ccn5nccc5n4)c[nH]c3n2)CC1 [Compound 2222, N-(cis-4-(2,2-Difluoroethoxy)cyclohexyl)-5-(pyrazolo[1,5-a]pyrimidin-5-yl)-7H-pyrrolo[2,3-d]pyrimidin-2-amine]",5.8
6,"COc1nc(NC2CCOCC2)nc2[nH]cc(-c3ccn4nccc4n3)c12 [Compound 2224, 4-Methoxy-5-(pyrazolo[1,5-a]pyrimidin-5-yl)-N-(tetrahydro-2H-pyran-4-yl)-7H-pyrrolo[2,3-d]pyrimidin-2-amine]",10.7
7,"COCCO[C@H]1CC[C@@H](Nc2ncc3c(-c4ccc5ncccc5c4)c[nH]c3n2)CC1 [Compound 2226, N-(cis-4-(2-Methoxyethoxy)cyclohexyl)-5-(quinolin-6-yl)-7H-pyrrolo[2,3-d]pyrimidin-2-amine]",6.2
8,"C[C@]1(O)CC[C@@H](Nc2ncc3c(-c4ccc5nccnc5c4)c[nH]c3n2)CC1 [Compound 2228, cis-1-Methyl-4-((5-(quinoxalin-6-yl)-7H-pyrrolo[2,3-d]pyrimidin-2-yl)amino)cyclohexan-1-ol]",2.6
9,"OCCO[C@H]1CC[C@@H](Nc2ncc3c(-c4ccc5nccnc5c4)c[nH]c3n2)CC1 [Compound 2229, 2-((cis-4-((5-(Quinoxalin-6-yl)-7H-pyrrolo[2,3-d]pyrimidin-2-yl)amino)cyclohexyl)oxy)ethan-1-ol]",2.6
10,"COc1nc(N[C@H]2CC[C@@](C)(O)CC2)nc2[nH]cc(-c3ccc4nccnc4c3)c12 [Compound 2231, cis-4-((4-Methoxy-5-(quinoxalin-6-yl)-7H-pyrrolo[2,3-d]pyrimidin-2-yl)amino)-1-methylcyclohexan-1-ol]",2.2
11,"CCOc1nc(N[C@H]2CC[C@@H](O)CC2)nc2[nH]cc(-c3ccc4nccnc4c3)c12 [Compound 2232, cis-4-((4-Ethoxy-5-(quinoxalin-6-yl)-7H-pyrrolo[2,3-d]pyrimidin-2-yl)amino)cyclohexan-1-ol]",1.3
12,"C[C@]1(O)CC[C@@H](Nc2ncc3c(-c4ccn5nccc5c4)c[nH]c3n2)CC1 [Compound 2234, cis-1-Methyl-4-((5-(pyrazolo[1,5-a]pyridin-5-yl)-7H-pyrrolo[2,3-d]pyrimidin-2-yl)amino)cyclohexan-1-ol]",5.9
13,"C[C@]1(O)CC[C@@H](Nc2ncc3c(-c4ccc5nccn5c4)c[nH]c3n2)CC1 [Compound 2235, cis-4-((5-(Imidazo[1,2-a]pyridin-6-yl)-7H-pyrrolo[2,3-d]pyrimidin-2-yl)amino)-1-methylcyclohexan-1-ol]",7.4
14,"C[C@]1(O)CC[C@H](Nc2ncc3c(-c4cc(F)c5nccn5c4)c[nH]c3n2)CC1 [Compound 2237, trans-4-((5-(8-Fluoroimidazo[1,2-a]pyridin-6-yl)-7H-pyrrolo[2,3-d]pyrimidin-2-yl)amino)-1-methylcyclohexan-1-ol]",7.9
15,"Cc1nc2ccc(-c3c[nH]c4nc(N[C@H]5CC[C@@](C)(O)CC5)ncc34)nc2n1CC(F)F [Compound 2239, cis-4-((5-(3-(2,2-Difluoroethyl)-2-methyl-3H-imidazo[4,5-b]pyridin-5-yl)-7H-pyrrolo[2,3-d]pyrimidin-2-yl)amino)-1-methylcyclohexan-1-ol]",6.9

# Results, then the compound that gave them:
row,EC50 [nM],Structure (SMILES)
1,2.2,"COc1nc(NC2CCOCC2)nc2[nH]cc(-c3ccn4nccc4c3)c12 [Compound 2217, 4-Methoxy-5-(pyrazolo[1,5-a]pyridin-5-yl)-N-(tetrahydro-2H-pyran-4-yl)-7H-pyrrolo[2,3-d]pyrimidin-2-amine]"
2,3.5,"CCOc1nc(N[C@H]2CC[C@@H](O)CC2)nc2[nH]cc(-c3ccn4nccc4c3)c12 [Compound 2219, cis-4-((4-Ethoxy-5-(pyrazolo[1,5-a]pyridin-5-yl)-7H-pyrrolo[2,3-d]pyrimidin-2-yl)amino)cyclohexan-1-ol]"
3,175,"COc1nc(NC2CCC(F)(F)CC2)nc2[nH]cc(-c3ccc4ncccc4c3)c12 [Compound 2227, N-(4,4-Difluorocyclohexyl)-4-methoxy-5-(quinolin-6-yl)-7H-pyrrolo[2,3-d]pyrimidin-2-amine]"
4,4.5,"COc1nc(NC2CCC(F)(F)CC2)nc2[nH]cc(-c3ccc4nccnc4c3)c12 [Compound 2230, N-(4,4-Difluorocyclohexyl)-4-methoxy-5-(quinoxalin-6-yl)-7H-pyrrolo[2,3-d]pyrimidin-2-amine]"
5,1.6,"COc1nc(N[C@H]2CC[C@@](C)(O)CC2)nc2[nH]cc(-c3ccc4nccn4c3)c12 [Compound 2233, cis-4-((5-(Imidazo[1,2-a]pyridin-6-yl)-4-methoxy-7H-pyrrolo[2,3-d]pyrimidin-2-yl)amino)-1-methylcyclohexan-1-ol]"
6,15,"C[C@]1(O)CC[C@H](Nc2ncc3c(-c4ccc5nccn5c4)c[nH]c3n2)CC1 [Compound 2236, trans-4-((5-(Imidazo[1,2-a]pyridin-6-yl)-7H-pyrrolo[2,3-d]pyrimidin-2-yl)amino)-1-methylcyclohexan-1-ol]"
7,7.9,"COc1nc(NCC(C)(C)F)nc2[nH]cc(-c3ccc4nccn4c3)c12 [Compound 2240, N-(2-Fluoro-2-methylpropyl)-5-(imidazo[1,2-a]pyridin-6-yl)-4-methoxy-7H-pyrrolo[2,3-d]pyrimidin-2-amine]"
8,26.9,"COc1nc(NC2CCC(F)(F)CC2)nc2[nH]cc(-c3ccc4nccn4c3)c12 [Compound 2241, N-(4,4-Difluorocyclohexyl)-5-(imidazo[1,2-a]pyridin-6-yl)-4-methoxy-7H-pyrrolo[2,3-d]pyrimidin-2-amine]"
9,28.4,"[2H]C([2H])([2H])O[C@H]1CC[C@@H](Nc2nc(OC)c3c(-c4ccc5nccn5c4)c[nH]c3n2)CC1 [Compound 2242, 5-(Imidazo[1,2-a]pyridin-6-yl)-4-methoxy-N-(cis-4-(methoxy-d3)cyclohexyl)-7H-pyrrolo[2,3-d]pyrimidin-2-amine]"
10,29.6,"COc1nc(N[C@H]2CC[C@H](OC(F)F)CC2)nc2[nH]cc(-c3ccc4nccn4c3)c12 [Compound 2245, N-(trans-4-(Difluoromethoxy)cyclohexyl)-5-(imidazo[1,2-a]pyridin-6-yl)-4-methoxy-7H-pyrrolo[2,3-d]pyrimidin-2-amine]"
